What all share (assay): NCI anticancer screen, dose series, 48 h
Assay [1] has as its system SK-MEL-28 melanoma.
The test system of assay [2] is HL-60(TB) leukemia.
Assay [3] deals with NCI-H23 lung.
Assay [4] relates to MALME-3M melanoma.
The subject of assay [5] is HCC-2998 colon.
The subject of assay [6] is OVCAR-3 ovarian.
Assay [7] concerns NCI-H522 lung.
In assay [8] the test system is TK-10 renal.
Assay [9] deals with SR leukemia.

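96-well plates; 48 h exposure; 5 concentrations. Endpoints by linear interpolation between flanking doses. Not reached: highest tested concentration assigned. Abbreviation: GI50, concentration required for 50% inhibition of growth. The concentration for full growth arrest is given as TGI.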

Take `O=c1[nH]cc(F)c(=O)n1C1OC(CO)C(O)C1O` (configuration not stated): the TGI in assay [1], in assay [2], in assay [3], in assay [4], in assay [5] and in assay [6] was over 100 µM throughout. Besides, the TGI in [7] and in assay [8] was over 100 µM in each case.

As to `O=C(c1nc2ccccc2[nH]c1=O)C(O)c1ccccc1` (configuration not stated), the TGI in [1], in assay [2], in [9], in assay [3], in assay [4] and in assay [5] was over 100 µM throughout. Besides, the TGI in [6], in assay [7] and in assay [8] was over 100 µM each time.

Take `CC(=O)OCCOCNC(=S)N/N=C/c1cc(Br)cs1`: the TGI in [1], in assay [2], in assay [9], in [3], in assay [4] and in assay [5] was over 100 µM throughout. In addition, the TGI in [6], in assay [7] and in [8] was over 100 µM throughout.

`CC1(c2ccccc2Cl)C(C#N)C(=O)NC(=O)C1C#N` (configuration not stated): the TGI in assay [1] is over 100 µM; in assay [2], 48.5 µM; in [3] it was over 100 µM; in [4], over 100 µM; in [5] it was over 100 µM; in assay [6] it was 46.7 µM. The TGI was 54 µM in assay [7] and over 100 µM in assay [8].

As for `N#CCN1CCn2c1nsc2=S`, the GI50 was over 100 µM in assay [1]; 20.2 µM in assay [2]; 1.09 µM in [9]; over 100 µM in assay [6]; 64.7 µM in assay [7]; over 100 µM in assay [8]. The TGI in assay [1] was over 100 µM; in [2], over 100 µM; in [9] it was 24.1 µM; in assay [6], over 100 µM; in assay [7], over 100 µM; in [8], over 100 µM.

Take `COCOCC/C=C/C=O`: the TGI in assay [1], in assay [2], in assay [9], in assay [3], in assay [4] and in assay [5] was over 100 µM each time. The TGI in assay [6], in [7] and in assay [8] was over 100 µM each time.

`Cc1ccc(S(=O)(=O)N/N=C(/CC(=O)c2c(C)n([O-])c3ccccc3[n+]2=O)C(=O)Nc2ccccc2C)cc1`: the TGI in [1], in [9], in assay [3], in assay [4], in assay [5] and in [6] was over 100 µM in each case. In addition, in [7], the TGI is over 100 µM.

With `Cc1ccc(C)c(N2C(=O)C(=O)C(c3nc4ccccc4s3)/C(=N/NC(=O)NN)C2=O)c1` (configuration not stated), the TGI in [1], in [2], in assay [9], in [3], in [4] and in assay [5] was over 100 µM in each case. Besides, the TGI in assay [6], in [7] and in assay [8] was over 100 µM throughout.

For the molecule `COc1ccc(-c2cc(C(=O)Nc3ccc(C)c(C)c3)nc(NC#N)n2)cc1`, the TGI in assay [1], in [3], in [4], in assay [6], in assay [7] and in [8] was over 100 µM in each case.

As for `NC(=O)c1csc(C2OC(COP(=O)(O)CP(=O)(O)OCC3OC(n4cnc5c(N)ncnc54)C(O)C3O)C(O)C2O)n1` (configuration not stated), the TGI in assay [1], in assay [2], in assay [3], in assay [4], in assay [5] and in [6] was over 100 µM throughout. Also, the TGI in [7] and in assay [8] was over 100 µM each time.

For `CC1(C)CC(=O)C(/C(=N/NC(=S)NN)C(=O)Nc2nc3ccc([N+](=O)[O-])cc3s2)C(=O)C1`, the TGI in assay [1], in [2], in assay [9], in assay [3], in assay [4] and in [5] was over 100 µM each time. In addition, the TGI in assay [6], in [7] and in assay [8] was over 100 µM in each case.

For the molecule `C[CH2][Sn]([CH2]C)([O]C(=O)c1ccccc1OC)[O][Sn]([CH2]C)([CH2]C)[O]C(=O)c1ccccc1OC`, the GI50 is over 100 µM in [1]; over 100 µM in assay [2]; over 100 µM in assay [9]; over 100 µM in assay [3]; 27.6 µM in assay [4]; over 100 µM in assay [5]. The GI50 in [6] is over 100 µM; in assay [7] it was 3.02 µM; in [8], over 100 µM. The TGI in assay [1], in [2], in assay [9], in assay [3], in assay [4] and in assay [5] was over 100 µM throughout. Further, the TGI in assay [6] is over 100 µM; in [7], 14.7 µM; in assay [8], over 100 µM.

Turning to `COc1ccc(/C=C2\CCC(C)(CN(C)C)C2=O)cc1OC` (configuration not stated), the TGI in assay [1], in assay [3], in assay [4], in [5], in [6] and in assay [7] was over 100 µM each time. In [8], the TGI was over 100 µM.

For `O=C1Nc2ccccc2N=CC1NC(=O)C(c1ccccc1)c1ccccc1` (configuration not stated), the TGI in assay [1], in [2], in [3], in assay [4], in [5] and in [6] was over 100 µM each time. For the same molecule, the TGI in assay [7] and in [8] was over 100 µM throughout.

For the origin of these results see PubChem BioAssay (NCI).
